Columns and labels:
PKCa = PKCa (Homo sapiens, UniProt P17252); experiment: biochemical; settings: read-out: % enzyme activity, 1 μM; Run 1, Run 2
MAK = biological target: T1, MAK (Homo sapiens, UniProt P20794); settings: 1 μM; Run 1, Run 2
T1 sequence (P20794 1-623): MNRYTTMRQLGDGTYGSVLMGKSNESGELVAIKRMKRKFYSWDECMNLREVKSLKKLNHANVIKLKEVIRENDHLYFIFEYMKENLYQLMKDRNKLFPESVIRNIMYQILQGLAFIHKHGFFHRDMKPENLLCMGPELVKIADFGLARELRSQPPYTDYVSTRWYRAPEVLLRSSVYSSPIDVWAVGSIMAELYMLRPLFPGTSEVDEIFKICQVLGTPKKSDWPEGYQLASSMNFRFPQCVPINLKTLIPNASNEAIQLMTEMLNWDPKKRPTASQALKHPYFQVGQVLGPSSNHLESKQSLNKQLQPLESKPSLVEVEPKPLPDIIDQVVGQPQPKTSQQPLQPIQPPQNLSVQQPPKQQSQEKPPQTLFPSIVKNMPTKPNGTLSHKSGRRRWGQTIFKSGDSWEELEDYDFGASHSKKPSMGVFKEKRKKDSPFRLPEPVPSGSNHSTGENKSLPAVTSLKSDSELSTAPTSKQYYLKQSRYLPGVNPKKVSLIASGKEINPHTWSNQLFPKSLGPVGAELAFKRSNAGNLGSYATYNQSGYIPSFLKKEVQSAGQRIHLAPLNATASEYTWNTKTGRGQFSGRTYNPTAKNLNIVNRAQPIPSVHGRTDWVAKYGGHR

MAPKAPK5/PRAK = biological target: T2, MAPKAPK5/PRAK (Homo sapiens, UniProt Q8IW41); experiment: biochemical; settings: read-out: % enzyme activity, 1 μM; Run 1, Run 2
T2 sequence (Q8IW41 1-473): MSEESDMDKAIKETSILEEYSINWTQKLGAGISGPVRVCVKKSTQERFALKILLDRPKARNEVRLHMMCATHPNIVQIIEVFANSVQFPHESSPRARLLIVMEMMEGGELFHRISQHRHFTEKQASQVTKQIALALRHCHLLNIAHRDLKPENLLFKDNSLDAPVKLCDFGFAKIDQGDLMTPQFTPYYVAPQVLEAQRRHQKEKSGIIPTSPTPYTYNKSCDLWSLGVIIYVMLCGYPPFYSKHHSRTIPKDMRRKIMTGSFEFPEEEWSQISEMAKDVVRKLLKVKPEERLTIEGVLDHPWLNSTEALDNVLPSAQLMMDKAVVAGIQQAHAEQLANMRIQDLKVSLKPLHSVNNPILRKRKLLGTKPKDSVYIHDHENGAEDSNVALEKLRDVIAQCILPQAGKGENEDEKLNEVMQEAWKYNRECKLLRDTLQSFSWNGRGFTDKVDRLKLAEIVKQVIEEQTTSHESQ

NEK1 = biological target: T3, NEK1 (Homo sapiens, UniProt Q96PY6); settings: 1 μM; Run 1, Run 2
T3 sequence (Q96PY6 1-1258): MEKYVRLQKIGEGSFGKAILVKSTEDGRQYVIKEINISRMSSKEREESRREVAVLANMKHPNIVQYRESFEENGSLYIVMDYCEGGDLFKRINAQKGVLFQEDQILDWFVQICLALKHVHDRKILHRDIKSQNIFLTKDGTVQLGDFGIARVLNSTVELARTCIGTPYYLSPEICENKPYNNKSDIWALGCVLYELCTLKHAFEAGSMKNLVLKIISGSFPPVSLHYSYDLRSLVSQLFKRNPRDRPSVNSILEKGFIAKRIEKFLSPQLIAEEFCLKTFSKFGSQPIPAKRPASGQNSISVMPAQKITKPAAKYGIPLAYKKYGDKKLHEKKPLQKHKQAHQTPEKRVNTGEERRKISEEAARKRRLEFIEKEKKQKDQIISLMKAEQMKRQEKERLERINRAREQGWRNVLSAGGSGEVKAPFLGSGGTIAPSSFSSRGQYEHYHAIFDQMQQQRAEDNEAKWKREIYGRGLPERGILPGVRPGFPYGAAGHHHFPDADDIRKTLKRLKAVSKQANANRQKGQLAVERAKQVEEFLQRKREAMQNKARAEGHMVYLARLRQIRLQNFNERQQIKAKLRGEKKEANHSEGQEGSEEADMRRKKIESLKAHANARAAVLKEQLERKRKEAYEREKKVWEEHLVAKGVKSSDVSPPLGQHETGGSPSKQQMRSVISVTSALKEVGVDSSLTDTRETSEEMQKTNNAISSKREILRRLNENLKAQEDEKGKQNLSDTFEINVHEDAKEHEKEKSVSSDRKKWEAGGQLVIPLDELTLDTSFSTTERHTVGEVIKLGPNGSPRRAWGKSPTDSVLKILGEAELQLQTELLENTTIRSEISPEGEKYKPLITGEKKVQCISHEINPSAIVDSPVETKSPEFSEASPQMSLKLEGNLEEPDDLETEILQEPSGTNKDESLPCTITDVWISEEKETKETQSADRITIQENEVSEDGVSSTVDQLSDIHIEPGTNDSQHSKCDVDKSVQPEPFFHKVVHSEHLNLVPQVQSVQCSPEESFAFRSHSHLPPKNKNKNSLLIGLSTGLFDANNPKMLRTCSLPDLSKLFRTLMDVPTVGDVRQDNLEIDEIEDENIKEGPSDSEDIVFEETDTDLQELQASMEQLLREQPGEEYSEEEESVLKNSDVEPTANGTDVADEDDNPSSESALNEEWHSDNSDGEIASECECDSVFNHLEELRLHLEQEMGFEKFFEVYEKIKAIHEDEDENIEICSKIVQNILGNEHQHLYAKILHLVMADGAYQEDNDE

Row | SMILES | remaining activity at 1 µM (PKCa) [%] | % enzyme activity (MAK) [%] | remaining activity at 1 µM (MAPKAPK5/PRAK) [%] | % enzyme activity (NEK1) [%]
1 | COc1cc(-c2cncc(-c3ccc(N4CCN(C)CC4)cc3)c2C)cc(F)c1C(N)=O [Compound 26a, 2-Fluoro-6-methoxy-4-(4-methyl-5-(4-(4-methylpiperazin-1-yl)phenyl)pyridin-3-yl)benzamide] | 89.8 | 98.28 | 93.2 | 84.54
2 | COc1cc(-c2cncc(-c3ccc(N4C[C@@H](C)N(C)[C@@H](C)C4)cc3)c2C)cc(F)c1C(N)=O [Compound 26c, 2-Fluoro-6-methoxy-4-(4-methyl-5-(4-((3R,5S)-3,4,5-trimethylpiperazin-1-yl)phenyl)pyridin-3-yl)benzamide] | 90.3 | 100.81 | 94.7 | 84.46
